Columns and labels:
A549 cells = assay: Apoptotic activity by MTT analysis, A549 cells; format: cell-based; settings: 15 μM of the compound, mean±standard deviation; for cytotoxicity at 15 µM: Homo sapiens, A549, 12 h, read-out: Apoptosis (%) A549 cells
Protocol: (§1) Lung cancer cells (A549), colorectal cancer cells (HCT116), HeLa cells, liver cancer cells (HepG2), T-cell leukemia cells (Jurkat), myeloid leukemia cells (K562), breast cancer cells (MCF-7 and MDA-MB-231) and myelocytic leukemia cells ([…]) were obtained from the American Type Culture Collection (ATCC), and cultured in 10% fetal bovine serum (FBS), 50 units/mL penicillin and 50 units/mL streptomycin-added RPMI 1640 (Invitrogen). The cells were maintained in a humidified 37° C., 5% CO2 atmosphere. The anticancer activity was detected by MTT analysis. Each type of cancer cells were plated in triplicate in a 96-well microtiter plate, and cultured at 37° C. for 24 hours. The cells were treated with each of the compounds prepared above at 37° C. for 12 hours. After the culturing of the cells, 10 μL of an MTT reagent ((3-[4,5-dimethyl-2-thiazolyl]-2,5-diphenyl-2H-tetrazoliumbromide) was added to each well, and cultured for 3.5 hours. The absorbance of each sample was detected using a UV microplate reader (SpectraMax 340PC 384, Molecular Devices) at 570 nm. The detection results were measured as a mean value. The effect of each compound on apoptosis is shown in Table 1.
(§2) The A549 and HeLa cells were treated with 15 μM of the compound for 12 hours. The apoptosis was detected using MTT (mean±standard deviation).

HeLa cells = assay: Apoptotic activity by MTT analysis, HeLa cells; format: cell-based; settings: 15 μM of the compound, mean±standard deviation; for cytotoxicity at 15 µM: Homo sapiens, HeLa, 12 h, read-out: Apoptosis (%) HeLa cells
Protocol: as §1, §2

| Compound | cytotoxicity at 15 µM (A549 cells) | cytotoxicity at 15 µM (HeLa cells) | Apoptosis (%) A549 cells (A549 cells; 12 hours) | Apoptosis (%) HeLa cells (HeLa cells; 12 hours) |
| --- | --- | --- | --- | --- |
| COC(=O)c1ccc(Cn2c(-c3cc(C(F)(F)F)cc(C(F)(F)F)c3)nc(-c3ccc(OC)cc3)c2-c2ccc(OC)cc2)cc1 [Example 120, Methyl4-((2-(3,5-bis(trifluoromethyl)phenyl)-4,5-bis(4-methoxyphenyl)-1H-imidazole-1-yl)methyl)benzoate] | 40 ± 0.49% | 53 ± 1.84% | – | – |
| COCCNC(=O)c1ccc(Cn2c(-c3cc(C(F)(F)F)cc(C(F)(F)F)c3)nc(-c3ccc(OC)cc3)c2-c2ccc(OC)cc2)cc1 [Example 121, 4-((2-(3,5-bis(trifluoromethyl)phenyl)-4,5-bis(4-methoxyphenyl)-1H-imidazole-1-yl)methyl)-N-(2-methoxyethyl)benzamide] | 13 ± 0.38% | 19 ± 1.06% | – | – |
| COCCOC(=O)c1ccc(Cn2c(-c3cc(C(F)(F)F)cc(C(F)(F)F)c3)nc(-c3ccc(OC)cc3)c2-c2ccc(OC)cc2)cc1 [Example 122, 2-methoxyethyl 4-((2-(3,5-bis(trifluoromethyl)phenyl)-4,5-bis(4-methoxyphenyl)-1H-imidazole-1-yl)methyl)benzoate] | 58 ± 0.28% | 57 ± 0.77% | – | – |
| NCCOCCOCCNC(=O)c1ccc(Cn2c(-c3cc(C(F)(F)F)cc(C(F)(F)F)c3)nc(-c3ccccc3Cl)c2-c2ccccc2Cl)cc1 [Example 123, N-(2-(2-(2-aminoethoxy)ethoxy)ethyl)-4-((2-(3,5-bis(trifluoromethyl)phenyl)-4,5-bis(2-chlorophenyl)-1H-imidazole-1-yl)methyl)benzamide] | 11 ± 0.7% | 8 ± 0.76% | – | – |
| NCCOCCOCCNC(=O)c1ccc(Cn2c(-c3ccc(C(F)(F)F)cc3)nc(-c3ccccc3)c2-c2ccccc2)cc1 [Example 128, N-(2-(2-(2-aminoethoxy)ethoxy)ethyl)-4-((4,5-diphenyl-2-(4-(trifluoromethyl)phenyl)-1H-imidazole-1-yl)methyl)benzamide] | 77 ± 0.76% | 78 ± 1.61% | – | – |
| N=C(N)c1ccc(Cn2c(-c3cc(C(F)(F)F)cc(C(F)(F)F)c3)nc(-c3ccc(Br)cc3)c2-c2ccc(Br)cc2)cc1 [Example 181, 4-((2-(3,5-bis(trifluoromethyl)phenyl)-4,5-bis(4-bromophenyl)-1H-imidazole-1-yl)methyl)benzimidamide] | 93 ± 0.59% | 94 ± 1.26% | – | – |
| COc1cccc(-c2nc(-c3cc(C(F)(F)F)cc(C(F)(F)F)c3)n(Cc3ccc(C(=N)N)cc3)c2-c2cccc(OC)c2)c1 [Example 182, 4-((2-(3,5-bis(trifluoromethyl)phenyl)-4,5-bis(3-methoxyphenyl)-1H-imidazole-1-yl)methyl)benzimidamide] | 49 ± 0.82% | 49 ± 0.48% | – | – |
| Cc1ccc(-c2nc(-c3cc(C(F)(F)F)cc(C(F)(F)F)c3)n(Cc3ccc(C(=N)N)cc3)c2-c2ccc(C)cc2)cc1 [Example 183, 4-((2-(3,5-bis(trifluoromethyl)phenyl)-4,5-ditolyl-1H-imidazole-1-yl)methyl)benzimidamide] | 56 ± 1.07% | 56 ± 0.38% | – | – |
| N=C(N)c1ccc(Cn2c(-c3cc(C(F)(F)F)cc(C(F)(F)F)c3)nc(-c3ccccc3)c2-c2ccccc2)cc1 [Example 184, 4-((2-(3,5-bis(trifluoromethyl)phenyl)-4,5-diphenyl-1H-imidazole-1-yl)methyl)benzimidamide] | 79 ± 0.77% | 79 ± 0.46% | – | – |
| COc1ccc(-c2nc(-c3ccc4c(c3)-c3ccccc3C4)n(Cc3ccc(C(=N)N)cc3)c2-c2ccc(OC)cc2)cc1 [Example 185, 4-((2-(9H-fluorene-3-yl)-4,5-bis(4-methoxyphenyl)-1H-imidazole-1-yl)methyl)benzimidamide] | 42 ± 1.15% | 42 ± 0.38% | – | – |
| COc1ccc(-c2nc(-c3cc(C(F)(F)F)cc(C(F)(F)F)c3)n(Cc3ccc(/C(N)=N/O)cc3)c2-c2ccc(OC)cc2)cc1 [Example 186, 4-((2-(3,5-bis(trifluoromethyl)phenyl)-4,5-bis(4-methoxyphenyl)-1H-imidazole-1-yl)methyl)-N′-hydroxybenzimidamide] | 5 ± 0.38% | 5 ± 0.27% | – | – |
| COc1ccc(-c2nc(-c3cc(C(F)(F)F)cc(C(F)(F)F)c3)n(CCOCCOCCN)c2-c2ccc(OC)cc2)cc1 [Example 187, 2-(2-(2-(2-(3,5-bis(trifluoromethyl)phenyl)-4,5-bis(4-methoxyphenyl)-1H-imidazole-1-yl)ethoxy)ethoxy)ethaneamine] | 31 ± 0.29% | 12 ± 0.92% | – | – |
| NCCOCCOCCNC(=O)c1ccc(Cn2c(-c3cc(C(F)(F)F)cc(C(F)(F)F)c3)nc(-c3ccc(F)cc3)c2-c2ccc(F)cc2)cc1 [Example 188, N-(2-(2-(2-aminoethoxy)ethoxy)ethyl)-4-((2-(3,5-bis(trifluoromethyl)phenyl)-4,5-bis(4-fluorophenyl)-1H-imidazole-1-yl)methyl)benzamide] | 12 ± 0.24% | 19 ± 0.65% | – | – |
| NCCOCCOCCNC(=O)c1ccc(Cn2c(-c3cc(C(F)(F)F)cc(C(F)(F)F)c3)nc(-c3ccc(Cl)cc3)c2-c2ccc(Cl)cc2)cc1 [Example 189, N-(2-(2-(2-aminoethoxy)ethoxy)ethyl)-4-((2-(3,5-bis(trifluoromethyl)phenyl)-4,5-bis(4-chlorophenyl)-1H-imidazole-1-yl)methyl)benzamide] | – | – | 81 ± 0.45% | 86 ± 0.64% |
| COc1ccc(-c2nc(-c3cc(C(F)(F)F)cc(C(F)(F)F)c3)n(Cc3ccc(C(=O)NCCOCCN)cc3)c2-c2ccc(OC)cc2)cc1 [Example 190, N-(2-(2-aminoethoxy)ethyl)-4-((2-(3,5-bis(trifluoromethyl)phenyl)-4,5-bis(4-methoxyphenyl)-1H-imidazole-1-yl)methyl)benzamide] | 72 ± 2.88% | 87 ± 0.62% | – | – |
| COc1ccc(-c2nc(-c3cc(C(F)(F)F)cc(C(F)(F)F)c3)n(Cc3ccc(C(=O)NCCCCCCN)cc3)c2-c2ccc(OC)cc2)cc1 [Example 191, N-(6-aminohexyl)-4-((2-(3,5-bis(trifluoromethyl)phenyl)-4,5-bis(4-methoxyphenyl)-1H-imidazole-1-yl)methyl)benzamide] | 78 ± 2.43% | 94 ± 1.64% | – | – |
| COc1ccc(-c2nc(-c3cc(C(F)(F)F)cc(C(F)(F)F)c3)n(Cc3ccc(C(=O)NCCCCCCCN)cc3)c2-c2ccc(OC)cc2)cc1 [Example 192, N-(7-aminoheptyl)-4-((2-(3,5-bis(trifluoromethyl)phenyl)-4,5-bis(4-methoxyphenyl)-1H-imidazole-1-yl)methyl)benzamide] | 80 ± 1.78% | 93 ± 0.56% | – | – |
| COc1ccc(-c2nc(-c3cc(C(F)(F)F)cc(C(F)(F)F)c3)n(Cc3ccc(C(=O)NCCCCCCCCN)cc3)c2-c2ccc(OC)cc2)cc1 [Example 193] | 77 ± 1.65% | 94 ± 1.02% | – | – |
| COc1ccc(-c2nc(-c3cc(C(F)(F)F)cc(C(F)(F)F)c3)n(Cc3ccc(C(=O)NCCCCCCCCCN)cc3)c2-c2ccc(OC)cc2)cc1 [Example 194] | 80 ± 1.33% | 84 ± 2.01% | – | – |
| COc1ccc(-c2nc(-c3cc(C(F)(F)F)cc(C(F)(F)F)c3)n(Cc3ccc(C(=O)NCCOCCOCCO)cc3)c2-c2ccc(OC)cc2)cc1 [Example 195, 4-((2-(3,5-bis(trifluoromethyl)phenyl)-4,5-bis(4-methoxyphenyl)-1H-imidazole-1-yl)methyl)-N-(2-(2-(2-hydroxyethoxy)ethoxy)ethyl)benzamide] | 86 ± 1.29% | 96 ± 0.98% | – | – |
| COc1ccc(-c2nc(-c3cc(C(F)(F)F)cc(C(F)(F)F)c3)n(Cc3ccc(C(=O)NCCOCCCOCCN)cc3)c2-c2ccc(OC)cc2)cc1 [Example 196, N-(2-(3-(2-aminoethoxy)propoxy)ethyl)-4-((2-(3,5-bis(trifluoromethyl)phenyl)-4,5-bis(4-methoxyphenyl)-1H-imidazole-1-yl)methyl)benzamide] | 0% | 0% | – | – |
| COc1ccc(-c2nc(-c3cc(C(F)(F)F)cc(C(F)(F)F)c3)n(Cc3ccc(C(=O)NCCCCCCCCCCN)cc3)c2-c2ccc(OC)cc2)cc1 [Example 197, N-(10-aminodecyl)-4-((2-(3,5-bis(trifluoromethyl)phenyl)-4,5-bis(4-methoxyphenyl)-1H-imidazole-1-yl)methyl)benzamide] | 96 ± 0.54% | 97 ± 1.22% | – | – |
| COc1ccc(-c2nc(-c3cc(C(F)(F)F)cc(C(F)(F)F)c3)n(Cc3ccc(C(=O)NCCCOCCOCCCN)cc3)c2-c2ccc(OC)cc2)cc1 [Example 198, N-(3-(2-(3-aminopropoxy)ethoxy)propyl)-4-((2-(3,5-bis(trifluoromethyl)phenyl)-4,5-bis(4-methoxyphenyl)-1H-imidazole-1-yl)methyl)benzamide] | 80 ± 1.43% | 83 ± 1.07% | – | – |
| COc1ccc(-c2nc(-c3cc(C(F)(F)F)cc(C(F)(F)F)c3)n(Cc3ccc(C(=O)NCCCCCCCCCCCN)cc3)c2-c2ccc(OC)cc2)cc1 [Example 199, N-(11-aminoundecyl)-4-((2-(3,5-bis(trifluoromethyl)phenyl)-4,5-bis(4-methoxyphenyl)-1H-imidazole-1-yl)methyl)benzamide] | 89 ± 1.63% | 93 ± 1.72% | – | – |

Reference: patent publication US20160297768A1, “NOVEL IMIDAZOLE DERIVATIVES AND THERAPEUTIC USE THEREOF” (INDUSTRY-ACA-DEMIC COORPERATION FOUNDATION, YONSEI …, priority 2013, published 2016)
